System: C57 BL/6J-ob/ob mice
Test: test for hypoglycemic effect in ob/ob mice
Format: in vivo
Conditions: plasma glucose on day 5, ob/ob mice dosed daily for five days, 50 mg/kg in 0.25% w/v methyl cellulose; value given as an example (e.g.)
Excerpt: The present compounds of the formula (I) are readily adapted to clinical use as hypoglycemic or hypocholesterolemic agents. The activity required for this former clinical use is defined by the test for hypoglycemic effect in ob/ob mice by the following procedure:
Five to eight week old C57 BL/6J-ob/ob mice (obtained from Jackson Laboratory, Bar Harbor, Maine) were housed five per cage under standard animal care practices. After a one week acclimation period, the animals were weighed and 25 microliters of blood was collected via an ocular bleed prior to any treatment. The blood sample was immediately diluted 1:5 with saline containing 2.5 mg/ml sodium fluoride and 2% sodium heparin, and held on ice for metabolite analysis. […] The supernatant was analyzed for glucose, for example, by the ABA 200 Bichromatic Analyzer™, using the A-gent™ glucose UV reagent system* (hexokinase method) using 20, 60 and 100 mg/dl standards. Plasma glucose was then calculated by the equation, Plasma glucose (mg/dl) = Sample value x 5 x 1.67 = 8.35 x Sample value [formula] where 5 is the dilution factor and 1.67 is the plasma hematocrit adjustment (assuming the hematocrit is 40%). ™A registered trademark of Abbott Laboratories, Diagnostics Division, 820 Mission Street, So. […]

CC1(COc2ccc(CC3SC(=O)NC3=O)cc2)CCCCC1 (stereo not shown) [positive control, ciglitazone]
glucose levels: ~130 mg/dL

Reference: EP0332332B1, “Hypoglycemic thiazolidinedione derivatives” (PFIZER INC., priority 1988, dated 1989)
